According to US12528796B2, “Modulators of RAS GTPase” (Tosk, Inc., priority 2019, dated 2026):

System: SW620 cells (KRAS-G12V)
Experiment: Cell proliferation / cytotoxicity assay (CellTiter-Glo 2.0)
Type: cell-based
Settings: Homo sapiens, SW-620, 72 h, SW620 cell line (KRAS-G12V), 72 hours incubation, luminescence (CellTiter-Glo 2.0); read-out: 5W620 IC50
Procedure: Compounds are assayed for inhibition of cell proliferation and killing cancer cells. Cytotoxicity assays are conducted according to the following general procedure. SW620 cells (ATCC CCL-227) are maintained in DMEM Low Glucose (Corning 10-014-CV) media supplemented with 10% fetal bovine serum and 1% PenStrep and grown at 37° C. in 5% CO2. Cells are plated into 96 well flat bottom plates (2 million/plate, ˜20,000/well, 200 μL media/well). The cells are allowed to settle and adhere to the plate bottom overnight. Compounds are diluted in media from a 10 mM stock solution starting at 50 μM, using 2-fold dilutions, in a column in a 96-well plate. Media is removed from the plate containing cells and replaced with media containing diluted compounds. Plates are incubated 72 hours at 37° C. in 5% CO2. Plates were allowed to come to room temperature and 100 μL CellTiter-Glo 2.0 reagent (Promega, G924C) is added at room temperature. Plates are shaken for 2 minutes, then allowed to stand for 15 minutes. Luminescence is read with FLx800 (BioTek Instruments). Data is plotted with GraphPad Prizm 8.0.
Dose response curves for the cytotoxicity of exemplary compounds against SW620 (KRAS-G12V) and MIA PaCa-2 (KRAS-G12C) cell lines are shown in FIG. 1A-1J.

Compared with `Cc1nc(NC2CCN(C(=O)c3ccc(Cl)cc3)CC2)nc2ccc(-c3cccc4c3OCCO4)cc12` [Compound 2, (4-chlorophenyl)(4-((6-(2,3-dihydrobenzo[b][1,4]dioxin-5-yl)-4-methylquinazolin-2-yl)amino)piperidin-1-yl)methanone], `Cc1nc(NC2CCN(C(=O)c3ccc(F)cc3)CC2)nc2ccc(-c3cccc4c3OCCO4)cc12` [Compound 14] is lower in IC50: 5 to 10 µM for the first, under 5 µM for the second.

Compared with `Cc1nc(NC2CCN(Cc3ccc(Cl)cc3)CC2)nc2ccc(-c3cccc4c3OCCO4)cc12` [Compound 3, N-(1-(4-chlorobenzyl)piperidin-4-yl)-6-(2,3-dihydrobenzo[b][1,4]dioxin-5-yl)-4-methylquinazolin-2-amine], `Cc1nc(NC2CCN(Cc3ccc(Cl)cc3)CC2)nc2ccc(-c3cccc4c3OCC3(CC3)CO4)cc12` [Compound 41] is higher in IC50: under 5 µM for the first, 5 to 10 µM for the second.

First: Cc1nc(NC2CCN(Cc3ccc(Cl)cc3)CC2)nc2ccc(-c3cccc4c3CCNC4)cc12 [Compound 4, N-(1-(4-chlorobenzyl)piperidin-4-yl)-4-methyl-6-(1,2,3,4-tetrahydroisoquinolin-5-yl)quinazolin-2-amine]
Second: Cc1nc(NC2CCN(Cc3ccc(Cl)cc3)CC2)nc2ccc(-c3cccc4c3CCCC4)cc12 [Compound 21]
The IC50 of the first is higher: 5 to 10 µM for the first, under 5 µM for the second.

First: Cc1nc(NC2CCN(C(=O)c3ccc(Cl)cc3)CC2)nc2ccc(-c3cccc4c3CCNC4)cc12 [Compound 7]
Second: Cc1nc(NC2CCN(C(=O)c3ccc(Cl)cc3)CC2)nc2ccc(-c3cccc4c3CCCC4)cc12 [Compound 23]
The IC50 of the first is higher: 5 to 10 µM for the first, under 5 µM for the second.

`CC(=O)N1CCc2c(cccc2-c2ccc3nc(NC4CCN(C(=O)c5ccc(Cl)cc5)CC4)nc(C)c3c2)C1` [Compound 8] and `Cc1ncccc1-c1ccc2nc(NC3CCN(C(=O)c4ccc(Cl)cc4)CC3)nc(C)c2c1` [Compound 66] fall in the same range of IC50: 5 to 10 µM for the first, 5 to 10 µM for the second.

`Cc1nc(N2CCC(N3Cc4ccccc4CC3=O)C2)nc2ccc(-c3cccc4c3OCCO4)cc12` (stereo not drawn) [Compound 9] and `Cc1nc(N2CC[C@H](N3Cc4ccccc4CC3=O)C2)nc2ccc(-c3cccc4c3OCCO4)cc12` [Compound 10] fall in the same range of IC50: 5 to 10 µM for the first, 5 to 10 µM for the second.

`Cc1nc(NC2CCN(C(=O)c3ccc(Cl)cc3)[C@@H](C)C2)nc2ccc(-c3cccc4c3OCCO4)cc12` (stereo partly drawn) [Compound 11] and `Cc1nc(N[C@@H]2CCN(C(=O)c3ccc(Cl)cc3)[C@H](C)C2)nc2ccc(-c3cccc4c3OCCO4)cc12` [Compound 12] fall in the same range of IC50: 5 to 10 µM for the first, 5 to 10 µM for the second.

`Cc1ncccc1C(=O)N1CCC(Nc2nc(C)c3cc(-c4cccc5c4OCCO5)ccc3n2)CC1` [Compound 13] and `Cc1nc(NC2CCN(C(=O)c3ccccc3Cl)CC2)nc2ccc(-c3cccc4c3OCCO4)cc12` [Compound 16] cannot be ordered by IC50: under 5 µM for the first, under 5 µM for the second.

`Cc1nc(NC2CCN(C(=O)c3cccc(Cl)c3)CC2)nc2ccc(-c3cccc4c3OCCO4)cc12` [Compound 15] and `Cc1nc(NC2CCN(C(=O)c3cccc(Cl)c3)[C@H](C)C2)nc2ccc(-c3cccc4c3OCCO4)cc12` (stereo partly drawn) [Compound 25] fall in the same range of IC50: 5 to 10 µM for the first, 5 to 10 µM for the second.

`COc1ccccc1C(=O)N1CCC(Nc2nc(C)c3cc(-c4cccc5c4OCCO5)ccc3n2)CC1` [Compound 17] and `COc1ccccc1C(=O)N1CCC(Nc2nc(C)c3cc(-c4cccc5c4OCCO5)ccc3n2)C[C@H]1C` (stereo partly drawn) [Compound 26] fall in the same range of IC50: 5 to 10 µM for the first, 5 to 10 µM for the second.

`Cc1nc(NC2CCN(C(=O)c3ccc(Cl)cc3)CC2)nc2ccc(-c3cccc4[nH]nc(C)c34)cc12` [Compound 18] and `Cc1cccc(-c2ccc3nc(NC4CCN(Cc5ccc(Cl)cc5)CC4)nc(C)c3c2)c1C` [Compound 29] cannot be ordered by IC50: under 5 µM for the first, under 5 µM for the second.

`Cc1ccc2ccc(F)c(-c3ccc4nc(NC5CCN(Cc6ccc(F)cc6)CC5)nc(C)c4c3)c2n1` [Compound 19] and `Cc1ccc2ccc(F)c(-c3ccc4nc(NC5CCN(C(=O)c6ccccc6Cl)CC5)nc(C)c4c3)c2n1` [Compound 61] fall in the same range of IC50: 5 to 10 µM for the first, 5 to 10 µM for the second.

`COc1c(Cl)cc(F)cc1-c1ccc2nc(NC3CCN(Cc4ccc(Cl)cc4)CC3)nc(C)c2c1` [Compound 20] and `COc1c(Cl)cccc1-c1ccc2nc(NC3CCN(Cc4ccc(Cl)cc4)CC3)nc(C)c2c1` [Compound 28] cannot be ordered by IC50: under 5 µM for the first, under 5 µM for the second.

First: Cc1nc(NC2CCN(Cc3ccc(Cl)cc3)CC2)nc2ccc(-c3ccnc4ccc(Cl)cc34)cc12 [Compound 22]
Second: Cc1nc(NC2CCN(Cc3ccc(Cl)cc3)CC2)nc2ccc(-c3ccnc4[nH]ccc34)cc12 [Compound 42]
The IC50 of the first is higher: 5 to 10 µM for the first, under 5 µM for the second.

Compared with `Cc1ccc2[nH]ncc2c1-c1ccc2nc(NC3CCN(Cc4ccc(Cl)cc4)CC3)nc(C)c2c1` [Compound 24], `Cc1nc(NC2CCN(Cc3ccc(Cl)cc3)CC2)nc2ccc(-c3cncc4[nH]ccc34)cc12` [Compound 58] is higher in IC50: under 5 µM for the first, 5 to 10 µM for the second. The first is the more potent here.

First: Cc1nc(NC2CCN(C(=O)c3ccccc3Cl)[C@H](C)C2)nc2ccc(-c3cccc4c3OCCO4)cc12 (stereo partly drawn) [Compound 27]
Second: COc1c(Cl)cccc1-c1ccc2nc(NC3CCN(C(=O)c4ccccc4Cl)CC3)nc(C)c2c1 [Compound 43]
The IC50 of the first is lower: under 5 µM for the first, 5 to 10 µM for the second. The first is the more potent here.

`Cc1nc(NC2CCN(Cc3ccc(Cl)cc3)CC2)nc2ccc(-c3cc(F)cc4c3OC(C)(C)C(=O)N4)cc12` [Compound 30] and `Cc1nc(NC2CCN(Cc3ccc(Cl)cc3)CC2)nc2ccc(-c3cccc4c3NC(=O)CO4)cc12` [Compound 62] cannot be ordered by IC50: under 5 µM for the first, under 5 µM for the second.

`Cc1nc(NC2CCN(Cc3ccc(Cl)cc3)CC2)ncc1-c1cccc2c1CCCC2` [Compound 31] and `Cc1nc(NC2CCN(Cc3ccc(Cl)cc3)CC2)nc2ccc(-c3cccc4c3/C(=N/O)CCC4)cc12` [Compound 33] cannot be ordered by IC50: under 5 µM for the first, under 5 µM for the second.

`Cc1nc(NC2CCN(Cc3ccc(Cl)cc3)CC2)nc2ccc(-c3cccc4c3C(=O)CCC4)cc12` [Compound 32] and `Cc1nc(NC2CCN(Cc3ccc(Cl)cc3)CC2)nc2ccc(-c3cccc4c3C(=O)CCO4)cc12` [Compound 63] cannot be ordered by IC50: under 5 µM for the first, under 5 µM for the second.

`Cc1nc(NC(C)c2cccnc2)nc2ccc(-c3cccc4c3CCCC4)cc12` (stereo not drawn) [Compound 34] and `Cc1nc(NC2CCN(C(=O)c3ccccc3Cl)CC2)nc2ccc(-c3cccc4c3CCCC4)cc12` [Compound 36] fall in the same range of IC50: 5 to 10 µM for the first, 5 to 10 µM for the second.

Compared with `Cc1nc(N[C@@H]2CC[C@@H](Cc3ccc(Cl)cc3)NC2)nc2ccc(-c3cccc4c3CCCC4)cc12` [Compound 37], `Cc1nc(NC2CCN(Cc3ccc(Cl)cc3)CC2)nc2ccc(-c3cccc4c3NC(=O)CC4)cc12` [Compound 65] is lower in IC50: 5 to 10 µM for the first, under 5 µM for the second.

`Cc1nc(NC2CCN(C(=O)c3ccc(Cl)cc3)CC2)ncc1-c1ccccc1C(C)(O)c1ccccc1` (stereo not drawn) [Compound 38] and `Cc1nc(NC2CCN(Cc3ccc(Cl)cc3)CC2)nc2ccc(-c3cncc4ccccc34)cc12` [Compound 59] fall in the same range of IC50: 5 to 10 µM for the first, 5 to 10 µM for the second.

`COc1cccc(-c2ccc3nc(NC4CCN(Cc5ccc(Cl)cc5)CC4)nc(C)c3c2)c1OC` [Compound 39] and `COc1cnccc1-c1ccc2nc(NC3CCN(Cc4ccc(Cl)cc4)CC3)nc(C)c2c1` [Compound 49] cannot be ordered by IC50: under 5 µM for the first, under 5 µM for the second.

First: Cc1nc(NC2CCN(Cc3ccc(Cl)cc3)CC2)nc2ccc(-c3ccncc3C#N)cc12 [Compound 44]
Second: Cc1nc(NC2CCN(Cc3ccc(Cl)cc3)CC2)nc2ccc(-c3ccncc3C(N)=O)cc12 [Compound 45]
The IC50 of the first is higher: 5 to 10 µM for the first, under 5 µM for the second. The second is the more potent here.

First: Cc1nc(NC2CCN(Cc3ccc(Cl)cc3)CC2)nc2ccc(-c3ccnc(N4CCOCC4)c3F)cc12 [Compound 46]
Second: Cc1nc(NC2CCN(Cc3ccc(Cl)cc3)CC2)nc2ccc(-c3ccnc(N4CCCCC4)c3F)cc12 [Compound 47]
The IC50 of the first is higher: 5 to 10 µM for the first, under 5 µM for the second. The second is the more potent here.

`COc1cccc(-c2ccc3nc(NC4CCN(Cc5ccc(Cl)cc5)CC4)nc(C)c3c2)n1` [Compound 48] and `COc1cc(-c2ccc3nc(NC4CCN(Cc5ccc(Cl)cc5)CC4)nc(C)c3c2)ccn1` [Compound 50] fall in the same range of IC50: 5 to 10 µM for the first, 5 to 10 µM for the second.

`COc1cc(-c2ccc3nc(NC4CCN(Cc5ccc(Cl)cc5)CC4)nc(C)c3c2)c(Cl)cn1` [Compound 51] and `COc1nccc(-c2ccc3nc(NC4CCN(Cc5ccc(Cl)cc5)CC4)nc(C)c3c2)c1Cl` [Compound 53] cannot be ordered by IC50: under 5 µM for the first, under 5 µM for the second.

`Cc1nccc(-c2ccc3nc(NC4CCN(Cc5ccc(Cl)cc5)CC4)nc(C)c3c2)c1Cl` [Compound 52] and `Cc1ncccc1-c1ccc2nc(NC3CCN(Cc4ccc(Cl)cc4)CC3)nc(C)c2c1` [Compound 54] cannot be ordered by IC50: under 5 µM for the first, under 5 µM for the second.

`COc1ncccc1-c1ccc2nc(NC3CCN(Cc4ccc(Cl)cc4)CC3)nc(C)c2c1` [Compound 55] and `Cc1nc(NC2CCN(Cc3ccc(Cl)cc3)CC2)nc2ccc(-c3cccnc3OC(C)C)cc12` [Compound 56] cannot be ordered by IC50: under 5 µM for the first, under 5 µM for the second.

First: Cc1nc(NC2CCN(Cc3ccc(Cl)cc3)CC2)nc2ccc(-c3cccnc3OCC(C)C)cc12 [Compound 57]
Second: Cc1nc(NC2CCN(Cc3ccc(Cl)cc3)CC2)nc2ccc(-c3cccc4c3CC(=O)CO4)cc12 [Compound 64]
The IC50 of the first is higher: 5 to 10 µM for the first, under 5 µM for the second. The second is the more potent here.

Compared with `Cc1ccc2ccc(F)c(-c3ccc4nc(NC5CCNCC5)nc(C)c4c3)c2n1` [Compound 60], `Cc1nc(N[C@H]2CC[C@@H](NC3Cc4cccc(Cl)c4C3)CC2)nc2ccc(Br)cc12` (stereo partly drawn) [Compound 67] is higher in IC50: under 5 µM for the first, 5 to 10 µM for the second. The first is the more potent here.

Same assay, conditions: SW620 cell line (KRAS-G12V), 72 hours incubation, luminescence (CellTiter-Glo 2.0); read-out: 5W620 IC50

In the case of `Cc1nc(NC2CCN(C(=O)c3ccc(Cl)cc3)CC2)nc2ccc(-c3cccc4c3CCCC4)cc12` [Compound 35], the IC50 is reported as 5 to 10 µM.
